In PubChem BioAssay (NCI):
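Briefly, cells in 96-well plates were exposed to five compound concentrations for 48 h, and endpoints were estimated by linear interpolation. Definition used: TGI = concentration required for complete inhibition of growth.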

Assays:
Assay in all cases: inhibition of tumour cell growth, NCI panel, 48 h
786-0 renal = test system: 786-0 renal
A498 renal = test system: A498 renal
A549 NSCLC = test system: A549 NSCLC
ACHN renal = test system: ACHN renal
CAKI-1 renal = test system: CAKI-1 renal
CCRF-CEM leukemia = test system: CCRF-CEM leukemia
COLO 205 colon = test system: COLO 205 colon
DLD-1 colon = test system: DLD-1 colon
DMS 114 small cell lung = test system: DMS 114 small cell lung
DMS 273 small cell lung = test system: DMS 273 small cell lung
EKVX NSCLC = test system: EKVX NSCLC
HCC-2998 colon = test system: HCC-2998 colon
HCT-116 colon = test system: HCT-116 colon
HCT-15 colon = test system: HCT-15 colon
HL-60(TB) leukemia = test system: HL-60(TB) leukemia
HOP-18 NSCLC = test system: HOP-18 NSCLC
HOP-62 NSCLC = test system: HOP-62 NSCLC
HOP-92 NSCLC = test system: HOP-92 NSCLC
HT29 colon = test system: HT29 colon
IGROV1 ovarian = test system: IGROV1 ovarian
K-562 leukemia = test system: K-562 leukemia
KM12 colon = test system: KM12 colon
KM20L2 colon = test system: KM20L2 colon
LOX IMVI melanoma = test system: LOX IMVI melanoma
LXFL 529 NSCLC = test system: LXFL 529 NSCLC
M14 melanoma = test system: M14 melanoma
MALME-3M melanoma = test system: MALME-3M melanoma
MOLT-4 leukemia = test system: MOLT-4 leukemia
NCI-H226 lung = test system: NCI-H226 lung
NCI-H23 lung = test system: NCI-H23 lung
NCI-H460 lung = test system: NCI-H460 lung
NCI-H522 lung = test system: NCI-H522 lung
OVCAR-3 ovarian = test system: OVCAR-3 ovarian
OVCAR-4 ovarian = test system: OVCAR-4 ovarian
OVCAR-5 ovarian = test system: OVCAR-5 ovarian
OVCAR-8 ovarian = test system: OVCAR-8 ovarian
RPMI-8226 leukemia = test system: RPMI-8226 leukemia
RXF-631 renal = test system: RXF-631 renal
SF-268 CNS = test system: SF-268 CNS
SF-295 CNS = test system: SF-295 CNS
SF-539 CNS = test system: SF-539 CNS
SK-MEL-2 melanoma = test system: SK-MEL-2 melanoma
SK-MEL-28 melanoma = test system: SK-MEL-28 melanoma
SK-MEL-5 melanoma = test system: SK-MEL-5 melanoma
SK-OV-3 ovarian = test system: SK-OV-3 ovarian
SN12C renal = test system: SN12C renal
SNB-19 CNS = test system: SNB-19 CNS
SNB-75 CNS = test system: SNB-75 CNS
SNB-78 CNS = test system: SNB-78 CNS
SR leukemia = test system: SR leukemia
SW-620 colon = test system: SW-620 colon
TK-10 renal = test system: TK-10 renal
U251 CNS = test system: U251 CNS
UACC-257 melanoma = test system: UACC-257 melanoma
UACC-62 melanoma = test system: UACC-62 melanoma
UO-31 renal = test system: UO-31 renal
DU-145 prostate = test system: DU-145 prostate
M19-MEL melanoma = test system: M19-MEL melanoma
RXF 393 renal = test system: RXF 393 renal
XF 498 CNS = test system: XF 498 CNS

SMILES: O=C(OCCOCBr)c1ccccc1
- TGI (786-0 renal): > 100 µM
- TGI (A498 renal): > 100 µM
- TGI (A549 NSCLC): > 100 µM
- TGI (ACHN renal): > 100 µM
- TGI (CAKI-1 renal): > 100 µM
- TGI (CCRF-CEM leukemia): > 100 µM
- TGI (COLO 205 colon): > 100 µM
- TGI (DLD-1 colon): > 100 µM
- TGI (DMS 114 small cell lung): > 100 µM
- TGI (DMS 273 small cell lung): > 100 µM
- TGI (EKVX NSCLC): > 100 µM
- TGI (HCC-2998 colon): > 100 µM
- TGI (HCT-116 colon): > 100 µM
- TGI (HCT-15 colon): > 100 µM
- TGI (HL-60(TB) leukemia): > 100 µM
- TGI (HOP-18 NSCLC): > 100 µM
- TGI (HOP-62 NSCLC): > 100 µM
- TGI (HOP-92 NSCLC): > 100 µM
- TGI (HT29 colon): > 100 µM
- TGI (IGROV1 ovarian): > 100 µM
- TGI (K-562 leukemia): > 100 µM
- TGI (KM12 colon): > 100 µM
- TGI (KM20L2 colon): > 100 µM
- TGI (LOX IMVI melanoma): > 100 µM
- TGI (LXFL 529 NSCLC): > 100 µM
- TGI (M14 melanoma): > 100 µM
- TGI (MALME-3M melanoma): > 100 µM
- TGI (MOLT-4 leukemia): > 100 µM
- TGI (NCI-H226 lung): > 100 µM
- TGI (NCI-H23 lung): > 100 µM
- TGI (NCI-H460 lung): > 100 µM
- TGI (NCI-H522 lung): > 100 µM
- TGI (OVCAR-3 ovarian): > 100 µM
- TGI (OVCAR-4 ovarian): > 100 µM
- TGI (OVCAR-5 ovarian): > 100 µM
- TGI (OVCAR-8 ovarian): > 100 µM
- TGI (RPMI-8226 leukemia): > 100 µM
- TGI (RXF-631 renal): > 100 µM
- TGI (SF-268 CNS): > 100 µM
- TGI (SF-295 CNS): > 100 µM
- TGI (SF-539 CNS): > 100 µM
- TGI (SK-MEL-2 melanoma): > 100 µM
- TGI (SK-MEL-28 melanoma): > 100 µM
- TGI (SK-MEL-5 melanoma): > 100 µM
- TGI (SK-OV-3 ovarian): > 100 µM
- TGI (SN12C renal): > 100 µM
- TGI (SNB-19 CNS): > 100 µM
- TGI (SNB-75 CNS): > 100 µM
- TGI (SNB-78 CNS): > 100 µM
- TGI (SR leukemia): > 100 µM
- TGI (SW-620 colon): > 100 µM
- TGI (TK-10 renal): > 100 µM
- TGI (U251 CNS): > 100 µM
- TGI (UACC-257 melanoma): > 100 µM
- TGI (UACC-62 melanoma): > 100 µM
- TGI (UO-31 renal): > 100 µM

SMILES: O=C1CCCC/C1=C/C=C/c1ccccc1
- TGI (786-0 renal): > 100 µM
- TGI (A498 renal): > 100 µM
- TGI (A549 NSCLC): > 100 µM
- TGI (ACHN renal): > 100 µM
- TGI (CAKI-1 renal): > 100 µM
- TGI (CCRF-CEM leukemia): > 100 µM
- TGI (COLO 205 colon): > 100 µM
- TGI (DLD-1 colon): > 100 µM
- TGI (DU-145 prostate): > 100 µM
- TGI (HCC-2998 colon): > 100 µM
- TGI (HCT-116 colon): > 100 µM
- TGI (HL-60(TB) leukemia): 62.8 µM
- TGI (HOP-18 NSCLC): > 100 µM
- TGI (HOP-92 NSCLC): > 100 µM
- TGI (HT29 colon): > 100 µM
- TGI (IGROV1 ovarian): > 100 µM
- TGI (K-562 leukemia): > 100 µM
- TGI (KM12 colon): > 100 µM
- TGI (KM20L2 colon): > 100 µM
- TGI (LOX IMVI melanoma): > 100 µM
- TGI (LXFL 529 NSCLC): > 100 µM
- TGI (M14 melanoma): > 100 µM
- TGI (M19-MEL melanoma): > 100 µM
- TGI (MALME-3M melanoma): > 100 µM
- TGI (MOLT-4 leukemia): > 100 µM
- TGI (NCI-H226 lung): > 100 µM
- TGI (NCI-H23 lung): > 100 µM
- TGI (NCI-H460 lung): > 100 µM
- TGI (NCI-H522 lung): 61.2 µM
- TGI (OVCAR-3 ovarian): > 100 µM
- TGI (OVCAR-4 ovarian): > 100 µM
- TGI (OVCAR-5 ovarian): > 100 µM
- TGI (OVCAR-8 ovarian): > 100 µM
- TGI (RPMI-8226 leukemia): > 100 µM
- TGI (RXF 393 renal): > 100 µM
- TGI (RXF-631 renal): > 100 µM
- TGI (SF-268 CNS): > 100 µM
- TGI (SF-295 CNS): > 100 µM
- TGI (SF-539 CNS): > 100 µM
- TGI (SK-MEL-2 melanoma): > 100 µM
- TGI (SK-MEL-28 melanoma): > 100 µM
- TGI (SK-MEL-5 melanoma): > 100 µM
- TGI (SK-OV-3 ovarian): > 100 µM
- TGI (SN12C renal): > 100 µM
- TGI (SNB-19 CNS): > 100 µM
- TGI (SNB-75 CNS): > 100 µM
- TGI (SW-620 colon): > 100 µM
- TGI (TK-10 renal): > 100 µM
- TGI (U251 CNS): > 100 µM
- TGI (UACC-257 melanoma): > 100 µM
- TGI (UACC-62 melanoma): > 100 µM
- TGI (UO-31 renal): > 100 µM
- TGI (XF 498 CNS): > 100 µM
